Measured values taken from article PMC9849758, “Chemically diverse activity-based probes with unexpected inhibitory mechanisms targeting trypsin-like serine proteases” (Frontiers in Chemistry, 2023).
Entries after “also recorded” stand apart in the source; their conditions may differ.

Assays:
β-tryptase = β-tryptase (Homo sapiens, UniProt P20231); assay: Kinetic progress curves (kapp, K1, KI*, mechanism); type: biochemical; set-up: purchased EnzoLife Sciences; conditions: for β-tryptase kapp: apparent second-order rate constant from progress curves, mean ± SD; for β-tryptase mechanism of inhibition: defined by the progress curves: slow-binding (Rev.) or irreversible (Irrev.)
Experimental: Because the compounds described in this paper were previously described as irreversible inhibitors, the IC50 value is inversely correlated with the second-order rate constant of inactivation. For a simple pseudo-first-order inactivation process, the activity after incubation with inhibitor (vi) varies with the inhibitor concentration (i), as described in the following equation: vi=v0·e^−kit where v0 is the activity in the absence of an inhibitor, k is the second-order rate constant of inactivation, and t is the time. The inactivation rate constant was determined from the time course of inhibition.
Kinetic assays were performed in the following manner. The inhibitor was mixed with the substrate, and the buffer solution with the enzyme was added at the time zero. The progress curves show the release of pNA or AMC as a function of time. Initially, no inhibitor is bound to the enzyme, and the tangent to the progress curve (dA/dt) is proportional to the free enzyme concentration. The free enzyme concentration decreases over time due to inhibitor binding kinetics, as described above. Progress curves were recorded in pseudo-first-order conditions ([I]0>>[E]0) and with less than 10% conversion of the substrate during the entire time course. In these conditions, dA/dt decreases exponentially with time. The progress curves were fitted with the integrated rate equation with GraFit7 to yield a value for kobs, a pseudo-first-order rate constant. At=Ao+vs∙t+vi−vs∙1−e^−kobs∙t/kobs where At is the absorbance at time t, A0 is the absorbance at time zero, vi is the initial rate and vs is the velocity at the steady-state.
The apparent second-order rate constant (kapp) was calculated from the slope of the linear part of the plot of kobs vs. the inhibitor concentration ([I]0). In the case of competition between the inhibitor and the substrate, kapp is smaller than the “real” second-order rate constant k discussed above because a certain fraction of the enzyme is present as an enzyme-substrate complex. kapp depends on the substrate concentration used in the experiment, as described by [Lambeir et al. (1996)].
The apparent equilibrium constants were obtained from the following equations, vi/vo=1/1+I/K1; vS/vo=1/1+I/KI* where vi is the initial rate, vs is the steady-state velocity and vo is the uninhibited initial rate.

CatG = target: T1, CatG (Homo sapiens, UniProt P08311); assay: Jump dilution, determination of inhibition type; type: biochemical; set-up: Cathepsin G (cathepsin G human neutrophil, Sigma-Aldrich); purchased Sigma-Aldrich; conditions: inhibitor at 10 times IC50, 15 min, diluted 10-fold or 100-fold; Rev./Irrev.
T1 sequence (P08311 21-255): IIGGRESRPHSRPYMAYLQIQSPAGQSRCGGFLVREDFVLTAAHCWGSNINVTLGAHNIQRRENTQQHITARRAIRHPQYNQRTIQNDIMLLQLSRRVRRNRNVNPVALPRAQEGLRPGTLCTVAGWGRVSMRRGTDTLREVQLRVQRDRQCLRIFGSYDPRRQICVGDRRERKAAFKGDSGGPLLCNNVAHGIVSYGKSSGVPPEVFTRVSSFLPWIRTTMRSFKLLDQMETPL
Experimental: The dissociation of the enzyme-inhibitor complex was monitored by substrate hydrolysis over time ([Joossens et al., 2006]).
Because ABPs are designed to be irreversible serine protease inhibitors, the IC50 is exclusively used as a first discriminatory evaluation. When an inhibitor is irreversible, its IC50 value not only depends on the substrate and enzyme concentration but also on the time of incubation with the enzyme before the reaction is started by adding the substrate. […] The progress curve in the presence of an irreversible inhibitor will show final velocities equal to zero (Figure 6C). In contrast, for a reversible inhibitor, progress curves have a non-zero final steady-state velocity (Figure 6A) ([McWhirter, 2021]). To corroborate the inhibitory mechanism of the compounds, jump-dilution assays were performed. These use an inhibitor concentration of 10-fold the IC50 for the incubation, and a posteriori, the reaction mixture is diluted 10-fold or 100-fold before adding the substrate. In the case of an irreversible inhibitor, enzymatic activity is not regained (Figure 6D), whereas, in the case of a reversible compound, a slow release of the inhibitor and a gradual increase of the enzymatic activity rate is observed (Figure 6B) ([Copeland, 2013]; [McWhirter, 2021]). The jump-dilution assays confirmed the behavior described by the progress curves.
2.2.2 Jump dilution results
Supplementary Table 2. Jump dilution of selected alkyne and desthiobiotin probes against a panel of trypsin-like serine proteases. […]
# R R DtBa 3 tryptase Thrombin uPA CatG
32b H Alk Irrev. Irrev. Rev. Irrev. Rev.
45b DtB Irrev. Irrev. Rev. N.D. N.D.
33b Alk Irrev. Irrev. Rev. Irrev. Rev.
46b Cl DtB Irrev. Irrev. Rev. N.D. N.D.
34b H Alk Rev. Rev. Rev. Irrev. Rev.
50b DtB Rev. Rev. Rev. Irrev. Rev.
35b Alk Rev. Rev. Rev. Irrev. Rev.
52b NHCOMe DtB Rev. Rev. Rev. Irrev. Rev.
36b Alk Rev. Rev. Rev. Irrev. Rev.
54b Cl DtB Rev. Rev. Rev. Irrev. Rev.
37b Alk Irrev. Irrev. N.D. Irrev. Irrev.
55b H DtB Irrev. Irrev. N.D. Irrev. Irrev.
38b Alk Irrev. Irrev. N.D. Irrev. Irrev.
56b NHCOMe DtB Irrev. Irrev. N.D. Irrev. Irrev.
39b Alk Irrev. Irrev. N.D. Irrev. Rev.
57b Cl DtB Irrev. Irrev. N.D. Irrev. Rev.
41b H Alk Irrev. Irrev. Irrev. N.D. N.D.
31b Pro-Lys H Alk Irrev. Irrev. Irrev. Irrev. N.D. a Alk: ABP precursor bearing an alkyne; DtB: desthiobiotin probe b Panel of serine proteases abbreviations: urokinase plasminogen activator (uPA), cathepsin G (catG) N.D.: IC50 is greater than 10µM, and jump dilution was not performed
2.2.3 Progress curves and Jump dilution experiments
Kinetic assays were performed in the following manner. The inhibitor was mixed with the substrate, and the buffer solution with the enzyme was added at the time zero. The progress curves show the release of para-nitroaniline (pNA) or 7-amino-4-methyl coumarin (AMC) as a function of time.
To monitor the dissociation of the inhibitor-enzyme, aliquots of the enzyme were incubated at 37 °C without and with the inhibitor at a concentration 10 times higher than its IC 50. The enzyme […]
min, the aliquots were diluted 10-fold or 100-fold into the substrate concentration and assay buffer used for the IC50 determination. The dissociation of the enzyme-inhibitor complex was monitored by substrate hydrolysis over time. Blue lines represent the control where no inhibitor was present. Pink lines represent the assay with inhibitor.

Sequence of β-tryptase (P20231 31-275): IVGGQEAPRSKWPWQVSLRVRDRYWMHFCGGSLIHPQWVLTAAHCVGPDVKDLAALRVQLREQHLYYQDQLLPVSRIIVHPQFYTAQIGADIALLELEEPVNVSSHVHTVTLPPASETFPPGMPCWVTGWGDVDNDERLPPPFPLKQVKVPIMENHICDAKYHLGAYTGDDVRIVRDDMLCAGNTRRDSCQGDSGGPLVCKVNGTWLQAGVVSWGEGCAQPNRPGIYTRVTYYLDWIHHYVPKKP

SMILES	β-tryptase kapp (β-tryptase)	β-tryptase mechanism of inhibition (β-tryptase)	CatG jump dilution result (CatG)
CC(=O)Nc1ccc(OP(=O)(Oc2ccc(NC(C)=O)cc2)C(NC(=O)OCCCc2cn(CCOCCOCCOCCNC(=O)CCCCC[C@H]3NC(=O)N[C@H]3C)nn2)c2ccc(NC(=N)N)cc2)cc1 (stereo partly drawn) [56b]	321 ± 2 M⁻¹ s⁻¹	Irreversible; also recorded: Irrev	Irrev.
C[C@@H]1NC(=O)N[C@@H]1CCCCCC(=O)NCCOCCOCCOCCn1cc(CCCOC(=O)NC(c2ccc(NC(=N)N)cc2)P(=O)(Oc2ccc(Cl)cc2)Oc2ccc(Cl)cc2)nn1 (stereo partly drawn) [57b]	65 × 10^2 ± 1,203 M^−1 s^−1	Irrev.	Rev.
